# Experimental data published in US12545653B2, “Compound as PPAR agonist and application thereof” (USA Elixiria Biotech Inc., priority 2019, dated 2026).
# What was measured:
# PPARγ = biological target: T1, PPARγ (Homo sapiens, UniProt P37231); assay: In vitro transcriptional activity of PPARγ gene (PPRE-luciferase reporter, HEK 293 T cells); format: cell-based; details: HEK 293 T cells transfected with PPARγ expression and PPRE-luc plasmids, 21 hours; read-out: EC50 of PPARγ gene activation
# T1 construct: expressed in transfected cells; host or cells: HEK 293 T cells
# T1 sequence (P37231 1-505): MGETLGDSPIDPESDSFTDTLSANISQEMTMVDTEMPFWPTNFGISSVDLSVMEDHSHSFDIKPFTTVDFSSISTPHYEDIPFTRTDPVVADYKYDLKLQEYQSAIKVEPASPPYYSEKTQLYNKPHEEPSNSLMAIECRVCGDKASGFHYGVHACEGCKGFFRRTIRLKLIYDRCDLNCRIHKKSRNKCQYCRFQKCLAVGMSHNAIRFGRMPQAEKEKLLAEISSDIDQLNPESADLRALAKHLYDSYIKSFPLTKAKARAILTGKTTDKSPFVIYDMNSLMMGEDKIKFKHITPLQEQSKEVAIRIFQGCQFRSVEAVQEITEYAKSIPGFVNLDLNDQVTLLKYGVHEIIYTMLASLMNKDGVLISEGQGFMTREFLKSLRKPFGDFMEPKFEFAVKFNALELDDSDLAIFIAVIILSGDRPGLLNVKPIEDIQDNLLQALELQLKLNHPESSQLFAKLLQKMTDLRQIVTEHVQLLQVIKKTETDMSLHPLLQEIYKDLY
# Excerpt: In this experiment, the PPARγ gene was used as target gene to detect the in vitro transcription activity of the compounds. The compounds of interest were detected was first dissolved with dimethyl sulfoxide (DMSO). […] First two plasmids were constructed: PPARγ protein expression plasmid and luciferase reporter plasmid. They are both from the lentiviral plasmid pLV-CMVIE-ZsGreen-Puro, whose DNA sequence contains the cytomegalovirus immediate early (CMVie) promoter, ZsGreen and Puro dual reporter. The PPARγ expression plasmid pLV-CMVIE-PPAR[…]-ZsGreen-Puro was constructed by cloning full-length coding sequences of the pertinent receptors into pHBLV-CMVIE-ZsGreen-Puro vector. To construct the luciferase (luc) reporter plasmid pLV-PPRE-luc-ZsGreen-Puro, the CMVie promoter in plasmid pHBLV-CMVIE-ZsGreenPuro was first replaced by a peroxisome proliferator responsive element (PPRE) containing fragments comprised the nucleotide sequence 50-[…], repeated four times in tandem, to generate a new plasmid, at a multiple cloning site of which the luc gene was then inserted. […] The compounds used for screening are representatives for compounds listed in Table 2, and Tables 3 of the present invention. […] Cells were distributed in 10-cm tissue culture plates at a density of 5.5 million cells per plate, and then transfected with the luciferase reporter plasmid (6 nanogram/plate) and the PPARγ expression plasmid (18 nanogram/plate). Cells were cultured for 6 hours. […] Then the cells were distributed in 96-well plates at a density of 20,000 cells per well. After incubation for 6 h, compounds or control with different concentration were placed into each well, resulting in the finical concentration of […] with each concentration in triplicate. Twenty-one hours later, promoter activation was detected by the addition of SteadyLite (PerkinElmer, Waltham, MA) and GloMax 96 Microplate Luminometer (Promega, Madison, WI). The amount of Luminometer emitted from each well is positively correlated with the expression of PPARγ gene. A three-parameter Sigmoid function curve was used to fit the obtained data. The abscissa represents the logarithmic value of the concentration, and the ordinate represents the percentage of PPARγ gene activation relative to those of the control. […] In Statistical analysis, the coefficient of variation is used to measure the robustness and repeatability of the experiment. […] The difference is significant with P<0.05. EC50 is a parameter of its activity.
# klotho gene = assay: In vivo brain transcriptional activity of klotho gene (RT-PCR of brain mRNA); set-up: species or system mouse; details: 10 mg/kg body weight/day tail vein
# Experimental: To verify this hypothesis, adult male Kunming mice were used in the experiments. […] The injection volume is 8 ml/kg body weight. Dimethyl sulfoxide (DMSO) was used as a vehicle control of the compounds. […] The RNA was then reverse-transcribed to the cDNA, and quantified by SYBR Green fluorescence quantitative PCR kit (HaiGene) and a quantitative PCR system (Bio-Rad Min-Opticon Type 2) were used for real-time fluorescent quantitative polymerase chain reaction (RT-PCR). The mouse gene primers were design as follows: • KLOTHO-forward 5′-[…]-3′; • LOTHO-reverse 5′-[…]-3′; • GAPDH-forward 5′-[…]-3′; • GAPDH-reverse 5′-[…]-3′.
# Data analysis was performed using the 2^−ΔΔct method. Semi-quantitative values of gene expression were then normalized by the control mean.
# APP/PS1 transgenic mice = assay: Alzheimer's disease model, eight-arm radial water maze and brain gene expression; format: in vivo, mouse; details: 30 days in food, 10 mg/kg body weight/day (donepezil 3 mg/kg body weight/day)
# Excerpt: A common indicator used in academia in memory and dementia experiments is the number of errors in the water maze (reference memory). More errors mean poorer memory. On the last 3 days of dosing, eight-arm radial water maze was used by experimenters who were blind to drug treatment. As a classic experimental instrument, to detect slight deficits in learning and memory, the eight-arm water maze is more sensitive than not only Morris maze, but also Six-arm radial water maze. For details, see reference 8: Alamed J et al. Two-day radial-arm water maze learning and memory task; robust resolution of amyloid-related memory deficits in transgenic mice [J]. […] This experiment uses an eight-arm water maze built in accordance with the above literature. The eight-arm water maze is placed in a basin with an interior diameter of 102 cm. Each arm measures 30 cm long, 14.5 cm wide, and 40 cm high. Escape platform is located at the end of one of the arms. In the reference memory version of the task described here, the goal arm is held constant for all trials, with a different start arm on successive trials. On day one, mice received 12 trials, with trials alternating between visible and hidden platform. On day 2 and 3, mice received 12 additional trials but the platform was kept hidden throughout the trials. Entry into an incorrect arm was scored as a spatial reference error. Errors were averaged into three trial blocks, with four blocks per day, e.g., the first block (the 1st to 3rd trial), the second block (the 4th to 6th trial), and so on. […]. The line charts were made with the number of blocks as the abscissa and the average of the number of errors as the ordinate. At the end of the experiments, the cerebral cortex and hippocampus of the mice were removed, RNA was extracted, and the expression of many genes was analyzed by semi-quantitative RT-PCR. […] The difference is significant with P<0.05.
# LN-229 cells = assay: Brain cancer model, LN-229 cells injected into the striatum, tumor volume; format: in vivo, mouse; details: mice with LN-229 cells in striatum, 5 mg/kg body weight/day
# Experimental: The treatment lasted for a total of 30 days. The compounds was dissolved in DMSO and mixed into food pellets. The animals were given ad libitum access to the pellets. […] The difference is significant with P<0.05.
# [1] = tested on: rat model of hyperglycemia-induced nephropathy; assay: Hyperglycemia-induced nephropathy model (streptozotocin); format: in vivo; details: streptozotocin rats, 5 mg/kg body weight/day in food, 90 days
# Experimental: The method was as follows:
# Wild type Sprague-Dawley rats were used. The compounds was dissolved in DMSO and mixed into food pellets. The animals were given ad libitum access to the pellets. […] In addition, 3 days before compound treatment, the animal of group 2 to 4 were given a single intraperitoneal injection of streptozotocin, and 3 days later, blood glucose levels were measured from tail veins using a glucose meter. Animals with blood glucose levels above 500˜650 milligrams per deciliter were considered as hyperglycemia and were used for further study. No any side effect, or significant body weight changes, or significant dietary changes were found during the administration. After 90 days after initiation of treatment, blood pressure values were measured with the tail cuff system. The day before the kidneys were harvested, animals were placed in metabolic cages for 24 h for urine collection, and albumin to creatinine ratio (ACR) was measured. Animals were then fasted for 12 hours and sacrificed under anesthesia with a 10% chloral hydrate solution (0.3 g/kg). Serum samples were isolated and biochemical parameters were analyzed with by enzyme colorimetry in an automatic analyzer (Roche) to determine the FBG (fasting blood glucose) level (unit millimole/L). In addition, fasting insulin (FINS) levels, where the units are milliIU/L, were determined by enzyme-linked immunosorbent assay (ELISA) method with anti-rat insulin antibodies, and TNF-α was detected by rat tumor necrosis factor-α (TNF-α) ELISA kit (BD). […] The difference is significant with P<0.05.
compound,measurement,setting,value
"CCc1ccc(CC/C=C/c2ccc3c(c2)NC(=O)CC3)cc1 [ELB00727, (E)-7-(4-(4-ethylphenyl)but-1-en-1-yl)-3,4-dihydroquinolin-2(1H)-one]",EC50,PPARγ,< 6.4 µM
same,mRNA level of klotho gene in the brain of the mouse relative to vehicle control group,klotho gene; after 10 days of continuous injection,more than twice
same,fold induction at 10 mg/kg,"klotho gene; Mus musculus, iv, 720 h, after 30 days of continuous injection, read-out: mRNA level of klotho gene in the brain of the mouse relative to vehicle control group",> 5
same,number of errors in water maze on the third day,APP/PS1 transgenic mice; 5 on the first day,~1
same,"reduction in the number of errors (reference memory), third day compared with first day",APP/PS1 transgenic mice; eight-arm water maze,significant
same,tumor volume at 30 days compared with disease control group,LN-229 cells,significant tumor volume reduction
same,blood TNF-α level compared with disease control group,[1],significant TNF-α level reduction
same,insulin resistance index ISI=ln (FBG*FINS) compared with disease control group,[1],significant ISI increase
same,urine albumin to creatinine ratio (ACR) compared with disease control group,[1],significant ACR reduction
